Key:
Assay type in all cases: in vivo
[1] = system: chickweed (Stellaria media); experiment: Test B postemergence plant response; settings: Postemergence
Summary of the method: (§1)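 Postemergence spray on 1- to 4-leaf plants (2–18 cm); greenhouse 13–15 d; visual rating vs controls, 0 = no effect, 100 = complete control; dash = not tested.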

[2] = system: canarygrass (Phalaris minor); experiment: Test B postemergence plant response; settings: Postemergence
Summary of the method: as §1

[3] = system: windgrass (Apera spica-venti); experiment: Test B postemergence plant response; settings: Postemergence
Summary of the method: as §1

[4] = system: winter barley (Hordeum vulgare); experiment: Test B postemergence plant response; settings: Postemergence
Summary of the method: as §1

[5] = system: wheat (Triticum aestivum); experiment: Test A pre-/postemergence plant response
Summary of the method: (§2)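 Ratings are visual, 0–100, where 100 means complete control and 0 no effect, taken roughly 10 days after treatment by comparison with untreated controls. Formulation: non-phytotoxic solvent mixture with surfactant.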

corn (Zea mays) = experiment: Test A pre-/postemergence plant response
Summary of the method: as §2

[6] = system: pigweed (Amaranthus retroflexus); experiment: Test A pre-/postemergence plant response
Summary of the method: as §2

[7] = system: barnyardgrass (Echinochloa crus-galli); experiment: Test A pre-/postemergence plant response
Summary of the method: as §2

[8] = system: velvetleaf (Abutilon theophrasti); experiment: Test A pre-/postemergence plant response
Summary of the method: as §2

[9] = system: large crabgrass (Digitaria sanguinalis); experiment: Test A pre-/postemergence plant response
Summary of the method: as §2

[10] = system: morningglory (Ipomoea coccinea); experiment: Test A pre-/postemergence plant response
Summary of the method: as §2

rice (Oryza sativa) = experiment: Test B flooded paddy test plant response
Summary of the method: (§3)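 Compounds were added directly to paddy water over 2-leaf-stage plants in pots flooded 3 cm above soil, water depth maintained. Visual injury scored against controls after 13 to 15 days in greenhouse, 0 (none) to 100 (complete control); dash indicates no result.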

[11] = system: umbrella sedge (Cyperus difformis); experiment: Test B flooded paddy test plant response
Summary of the method: as §3

[12] = system: ducksalad (Heteranthera limosa); experiment: Test B flooded paddy test plant response
Summary of the method: as §3

[13] = system: barnyardgrass (Echinochloa crus-galli); experiment: Test B flooded paddy test plant response
Summary of the method: as §3

[14] = 31 g ai/ha, scale 0 to 100, 0 no effect, 100 complete control
[15] = Postemergence, 125 g ai/ha, 0 to 100 scale, 0 no effect, 100 complete control
[16] = Postemergence, 500 g ai/ha, 0 to 100 scale, 0 no effect, 100 complete control
[17] = Preemergence, 125 g ai/ha, 0 to 100 scale (0 no effect, 100 complete control)
[18] = Preemergence, 500 g ai/ha, 0 to 100 scale (0 no effect, 100 complete control)
[19] = Flood (flooded paddy test), 62 g ai/ha, scale 0 to 100, 0 no effect, 100 complete control
[20] = Flood (flooded paddy test), 125 g ai/ha, scale 0 to 100, 0 no effect, 100 complete control
[21] = Flood (flooded paddy test), 250 g ai/ha, scale 0 to 100, 0 no effect, 100 complete control
[22] = Flood, 31 g ai/ha, scale 0 to 100

Which “Plant response rating, Chickweed” value [1, 14] does the source give for `Cc1cc(-c2ccc(Br)cc2)nn1-c1c(OC(=O)OC(C)C)cnn(C)c1=O` [Compound 6] here?
Its value is 0.

And the “Plant response rating, Chickweed” value ([1]; 62 g ai/ha, scale 0 to 100)?
Its value is 0.

And the “Plant response rating, Chickweed” value ([1]; 125 g ai/ha, scale 0 to 100)?
Its value is 0.

And the “Plant response rating, Chickweed” value ([1]; 250 g ai/ha, scale 0 to 100)?
The value was 0.

What about the “Plant response rating, Canarygrass” value [2, 14] of the same molecule?
The value was 95.

And the “Plant response rating, Canarygrass” value ([2]; 62 g ai/ha, scale 0 to 100)?
The value was 95.

What about the “Plant response rating, Canarygrass” value ([2]; 125 g ai/ha, scale 0 to 100) of the same molecule?
Its value is 100.

What about the “Plant response rating, Canarygrass” value ([2]; 250 g ai/ha, scale 0 to 100) of the same molecule?
The value was 100.

And the “Plant response rating, Windgrass” value [3, 14]?
Its value is 90.

What about the “Plant response rating, Windgrass” value ([3]; 62 g ai/ha, scale 0 to 100) of the same molecule?
Its value is 95.

And the “Plant response rating, Windgrass” value ([3]; 125 g ai/ha, scale 0 to 100)?
Its value is 100.

And the “Plant response rating, Windgrass” value ([3]; 250 g ai/ha, scale 0 to 100)?
The value was 100.

What about the “Plant response rating, Barley” value [4, 14] of the same molecule?
The value was 30.

And the “Plant response rating, Barley” value ([4]; 62 g ai/ha, scale 0 to 100)?
The value was 30.

And the “Plant response rating, Barley” value ([4]; 125 g ai/ha, scale 0 to 100)?
Its value is 80.

And the “Plant response rating, Barley” value ([4]; 250 g ai/ha, scale 0 to 100)?
The value was 80.

What about the “Plant response rating, Wheat” value [5, 15] of the same molecule?
Its value is 50.

And the “Plant response rating, Wheat” value [5, 16]?
The value was 70.

What about the “Plant response rating, Wheat” value [5, 17] of the same molecule?
The value was 80.

What about the “Plant response rating, Wheat” value [5, 18] of the same molecule?
The value was 90.

What about the “Plant response rating, Corn” value (corn (Zea mays); [15]) of the same molecule?
The value was 100.

And the “Plant response rating, Corn” value (corn (Zea mays); [16])?
Its value is 100.

And the “Plant response rating, Corn” value (corn (Zea mays); [17])?
Its value is 80.

And the “Plant response rating, Corn” value (corn (Zea mays); [18])?
The value was 90.

And the “Plant response rating, Pigweed” value [6, 15]?
The value was 0.

What about the “Plant response rating, Pigweed” value [6, 16] of the same molecule?
Its value is 30.

And the “Plant response rating, Pigweed” value [6, 17]?
Its value is 20.

What about the “Plant response rating, Pigweed” value [6, 18] of the same molecule?
Its value is 40.

And the “Plant response rating, Barnyardgrass” value [7, 15]?
Its value is 90.

What about the “Plant response rating, Barnyardgrass” value [7, 16] of the same molecule?
Its value is 100.

And the “Plant response rating, Barnyardgrass” value [7, 17]?
Its value is 90.

What about the “Plant response rating, Barnyardgrass” value [7, 18] of the same molecule?
Its value is 100.

And the “Plant response rating, Velvetleaf” value [8, 15]?
Its value is 40.

What about the “Plant response rating, Velvetleaf” value [8, 16] of the same molecule?
The value was 50.

What about the “Plant response rating, Velvetleaf” value [8, 17] of the same molecule?
The value was 40.

And the “Plant response rating, Velvetleaf” value [8, 18]?
The value was 50.

And the “Plant response rating, Crabgrass, Large” value [9, 15]?
Its value is 90.

And the “Plant response rating, Crabgrass, Large” value [9, 16]?
The value was 90.

What about the “Plant response rating, Crabgrass, Large” value [9, 17] of the same molecule?
Its value is 100.

And the “Plant response rating, Crabgrass, Large” value [9, 18]?
The value was 100.

What about the “Plant response rating, Morningglory” value [10, 15] of the same molecule?
Its value is 30.

What about the “Plant response rating, Morningglory” value [10, 16] of the same molecule?
Its value is 50.

And the “Plant response rating, Morningglory” value [10, 17]?
The value was 30.

What about the “Plant response rating, Morningglory” value [10, 18] of the same molecule?
Its value is 40.

And the “Plant response rating, Rice” value (rice (Oryza sativa); [19])?
The value was 30.

And the “Plant response rating, Rice” value (rice (Oryza sativa); [20])?
Its value is 80.

And the “Plant response rating, Rice” value (rice (Oryza sativa); [21])?
The value was 90.

And the “Plant response rating, Rice” value (rice (Oryza sativa); [22])?
Its value is 20.

And the “Plant response rating, Sedge, Umbrella” value [11, 19]?
Its value is 70.

And the “Plant response rating, Sedge, Umbrella” value [11, 20]?
The value was 85.

And the “Plant response rating, Sedge, Umbrella” value [11, 21]?
The value was 95.

What about the “Plant response rating, Sedge, Umbrella” value [11, 22] of the same molecule?
The value was 30.

And the “Plant response rating, Ducksalad” value [12, 19]?
The value was 50.

And the “Plant response rating, Ducksalad” value [12, 20]?
The value was 60.

What about the “Plant response rating, Ducksalad” value [12, 21] of the same molecule?
Its value is 70.

What about the “Plant response rating, Ducksalad” value [12, 22] of the same molecule?
The value was 40.

And the “Plant response rating, Barnyardgrass” value [13, 19]?
The value was 40.

What about the “Plant response rating, Barnyardgrass” value [13, 20] of the same molecule?
The value was 80.

What about the “Plant response rating, Barnyardgrass” value [13, 21] of the same molecule?
The value was 90.

What about the “Plant response rating, Barnyardgrass” value [13, 22] of the same molecule?
Its value is 0.

From US20100267561A1, “HERBICIDAL PYRIDAZINONE DERIVATIVES” (priority 2007, published 2010)
